In ChEMBL document CHEMBL5579824, “Novel Hsp90-Targeting PROTACs: Enhanced synergy with cisplatin in combination therapy of cervical cancer” (Eur J Med Chem, 2024):
Calls of active or inactive are those of the source. The calls are words filed in the database; no cut-off is given here.

Experiments:
SiHa [1] = assay: Induction of cell cycle arrest in human SiHa cells assessed as accumulation of cells at G1 pahse at 2.5 uM incubated after 48 hrs by PI staining based flow cytometry (reference value: 83.90 %); assay type: functional
SiHa [2] = assay: Synergistic antitumor activity against human SiHa cells xenografted in BALB/c nude mouse assessed as tumor growth inhibition at 2 mg/kg, ip co-treated with cisplatin separately for every two days; assay type: functional, organism-based
SiHa [3] = assay: Synergistic antiproliferative activity against human SiHa cells assessed as combination index at 10 uM incubated for 72 hrs in presence of 31.62 uM cisplatin by CCK-8 assay; assay type: functional
SiHa [4] = assay: Synergistic antiproliferative activity against human SiHa cells assessed as combination index at 0.1 uM incubated for 72 hrs in presence of 10 uM cisplatin by CCK-8 assay; assay type: functional
SiHa [5] = assay: Synergistic antiproliferative activity against human SiHa cells assessed as combination index at 10 uM incubated for 72 hrs in presence of 1 uM cisplatin by CCK-8 assay; assay type: functional
SiHa [6] = assay: Synergistic antiproliferative activity against human SiHa cells assessed as combination index at 0.5 uM incubated for 72 hrs in presence of 0.32 uM cisplatin by CCK-8 assay; assay type: functional
SiHa [7] = assay: Induction of apoptosis in human SiHa cells assessed as viable cells at 0.05 uM incubated after 48 hrs by annexin V-FITC/PI staining based flow cytometry (reference value: 90.4 %); assay type: functional; conditions: read-out: Activity
SiHa [8] = assay: Synergistic antiproliferative activity against human SiHa cells assessed as combination index at 5 uM incubated for 72 hrs in presence of 1 uM cisplatin by CCK-8 assay; assay type: functional
SiHa [9] = assay: Induction of apoptosis in human SiHa cells assessed as early apoptotic cells at 1 uM incubated after 48 hrs by annexin V-FITC/PI staining based flow cytometry (reference value: 2.05 %); assay type: functional
SiHa [10] = assay: Synergistic antiproliferative activity against human SiHa cells assessed as combination index at 5 uM incubated for 72 hrs in presence of 0.03 uM cisplatin by CCK-8 assay; assay type: functional
SiHa [11] = assay: Induction of cell cycle arrest in human SiHa cells assessed as accumulation of cells at S pahse at 0.05 uM incubated after 48 hrs by PI staining based flow cytometry (reference value: 8.51 %); assay type: functional
SiHa [12] = assay: Synergistic antiproliferative activity against human SiHa cells assessed as combination index at 0.75 uM incubated for 72 hrs in presence of 0.1 uM cisplatin by CCK-8 assay; assay type: functional
SiHa [13] = assay: Induction of cell cycle arrest in human SiHa cells assessed as accumulation of cells at G1 pahse at 1 uM incubated after 48 hrs by PI staining based flow cytometry (reference value: 83.90 %); assay type: functional
SiHa [14] = assay: Synergistic antiproliferative activity against human SiHa cells assessed as combination index at 10 uM incubated for 72 hrs in presence of 0.03 uM cisplatin by CCK-8 assay; assay type: functional
[15] = biological target: Serine/threonine-protein kinase mTOR (Homo sapiens) (UniProt P42345); assay: Inhibition of mTOR phosphorylation in human SiHa cells incubated for 10 hrs by Western blot analysis; assay type: cell-based; conditions: dose 0.01-1 µM
SiHa [16] = assay: Synergistic antiproliferative activity against human SiHa cells assessed as combination index at 0.05 uM incubated for 72 hrs in presence of 3.16 uM cisplatin by CCK-8 assay; assay type: functional
SiHa [17] = assay: Induction of apoptosis in human SiHa cells assessed as early apoptotic cells at 2.5 uM incubated after 48 hrs by annexin V-FITC/PI staining based flow cytometry (reference value: 2.05 %); assay type: functional
[18] = biological target: T1, Protein cereblon/Heat shock protein HSP 90-alpha/Heat shock protein HSP 90-beta (Homo sapiens) (UniProt P07900+P08238+Q96SW2); assay: Protac activity at CRBN/Hsp90 in human SiHa cells assessed as induction of Hsp90 degradation at 0.05 uM incubated for 10 hrs by Western blot analysis; assay type: cell-based
SiHa [19] = assay: Induction of apoptosis in human SiHa cells assessed as viable cells at 2.5 uM incubated after 48 hrs by annexin V-FITC/PI staining based flow cytometry (reference value: 90.4 %); assay type: functional; conditions: read-out: Activity
SiHa [20] = assay: Antiproliferative activity against human SiHa cells assessed as inhibition of clone formation ability incubated for 14 days by crystal violet staining based microscopic analysis; assay type: functional, cell-based; conditions: dose 0.01-1 µM, time 14.0 day
SiHa [21] = assay: Synergistic antiproliferative activity against human SiHa cells assessed as combination index at 10 uM incubated for 72 hrs in presence of 0.1 uM cisplatin by CCK-8 assay; assay type: functional
SiHa [22] = assay: Synergistic antiproliferative activity against human SiHa cells assessed as combination index at 1 uM incubated for 72 hrs in presence of 3.16 uM cisplatin by CCK-8 assay; assay type: functional
SiHa [23] = assay: Induction of cell cycle arrest in human SiHa cells assessed as accumulation of cells at G2/M pahse at 2.5 uM incubated after 48 hrs by PI staining based flow cytometry (reference value: 7.37 %); assay type: functional
SiHa [24] = assay: Antiproliferative activity against human SiHa cells assessed as reduction in cell viability incubated for 72 hrs by CCK-8 assay; assay type: functional, cell-based
SiHa [25] = assay: Synergistic antiproliferative activity against human SiHa cells assessed as combination index at 0.05 uM incubated for 72 hrs in presence of 31.62 uM cisplatin by CCK-8 assay; assay type: functional
SiHa [26] = assay: Induction of apoptosis in human SiHa cells assessed as late apoptotic cells at 10 uM incubated after 48 hrs by annexin V-FITC/PI staining based flow cytometry (reference value: 6.93 %); assay type: functional
SiHa [27] = assay: Synergistic antiproliferative activity against human SiHa cells assessed as combination index at 0.75 uM incubated for 72 hrs in presence of 31.62 uM cisplatin by CCK-8 assay; assay type: functional
[28] = biological target: T1, Protein cereblon/Heat shock protein HSP 90-alpha/Heat shock protein HSP 90-beta (Homo sapiens); assay: Protac activity at CRBN/Hsp90 in human SiHa cells assessed as decrease in mTOR protein expression level at 0.01 to 1 uM incubated for 10 hrs by Western blot analysis; assay type: cell-based; conditions: dose 0.01-1 µM
SiHa [29] = assay: Synergistic antiproliferative activity against human SiHa cells assessed as combination index at 0.5 uM incubated for 72 hrs in presence of 1 uM cisplatin by CCK-8 assay; assay type: functional
SiHa [30] = assay: Induction of cell cycle arrest in human SiHa cells assessed as accumulation of cells at G2/M pahse at 0.05 uM incubated after 48 hrs by PI staining based flow cytometry (reference value: 7.37 %); assay type: functional
SiHa [31] = assay: Synergistic antiproliferative activity against human SiHa cells assessed as combination index at 0.1 uM incubated for 72 hrs in presence of 0.32 uM cisplatin by CCK-8 assay; assay type: functional
SiHa [32] = assay: Synergistic antiproliferative activity against human SiHa cells assessed as combination index at 0.1 uM incubated for 72 hrs in presence of 0.1 uM cisplatin by CCK-8 assay; assay type: functional
[33] = biological target: T1, Protein cereblon/Heat shock protein HSP 90-alpha/Heat shock protein HSP 90-beta (Homo sapiens); assay: Protac activity at CRBN/Hsp90 in human SiHa cells assessed as induction of Hsp90 degradation at 1 uM incubated for 36 hrs by Western blot analysis; assay type: cell-based
[34] = biological target: T1, Protein cereblon/Heat shock protein HSP 90-alpha/Heat shock protein HSP 90-beta (Homo sapiens); assay: Protac activity at CRBN/Hsp90 in human SiHa cells assessed as induction of Hsp90 degradation at 0.05 uM incubated for 2 hrs in presence of MG-132 by Western blot analysis; assay type: cell-based

In the case of CC1(C)CC(=O)c2c(C(F)(F)F)nn(-c3ccc(C(N)=O)c(N[C@H]4CC[C@H](OC(=O)CNC(=O)CCCCCCCNc5cccc6c5CN(C5CCC(=O)NC5=O)C6=O)CC4)c3)c2C1 (some centres undefined), the Activity (SiHa [1]) is reported as 53.29%, the TGI (SiHa [2]) is reported as “Active” and the CI (SiHa [3]) is reported as 0.97. The CI (SiHa [4]) was 0.43, the CI (SiHa [5]) was 1.78 and the CI (SiHa [6]) was 0.12. For the same compound, the viability at 0.05 µM (SiHa [7]) was 90.1%, the CI (SiHa [8]) was 0.84 and the Activity (SiHa [9]) was 16.5%. It also gave a CI (SiHa [10]) of 1.02, an Activity (SiHa [11]) of 10.84% and a CI (SiHa [12]) of 0.18. The Activity (SiHa [13]) was 59.32%, the CI (SiHa [14]) was 2.11 and the inhibition [15] was “Active”. The CI (SiHa [16]) was 1.01, the Activity (SiHa [17]) was 21.35% and the Activity [18] was “Active”. The viability at 2.5 µM (SiHa [19]) was 55.3%, the inhibition (SiHa [20]) was “Dose-Dependent Effect” and the CI (SiHa [21]) was 2.06. For the same compound, the CI (SiHa [22]) was 0.18, the Activity (SiHa [23]) was 25.47% and the IC50 (SiHa [24]) was 50 nM. For the same compound, the CI (SiHa [25]) was 0.25, the Activity (SiHa [26]) was 29.96% and the CI (SiHa [27]) was 0.32. For the same compound, the Activity [28] was “inactive”, the CI (SiHa [29]) was 0.13 and the Activity (SiHa [30]) was 9.88%. The CI (SiHa [31]) was 0.45, the CI (SiHa [32]) was 0.49 and the Activity [33] was “inactive”. The Activity [34] was “inactive”.
